ChEMBL document CHEMBL6078713, “Synthesis and mechanistic studies of 4-aminoquinoline-Isatin molecular hybrids and Schiff's bases as promising antimicrobial agents” (Eur J Med Chem, 2025)
In brackets after ≈: the same amount, converted by molar mass. Activity calls are given as the source filed them. The calls are words filed in the database; no cut-off is given here.

Key:
[1] = tested on: Enterococcus faecalis; assay: Synergistic antibacterial activity against Enterococcus faecalis MTCC 439 assessed as inhibition of bacterial growth incubated overnight in presence of ciprofloxacin by serial dilution based spectrophotometer; type: functional
[2] = tested on: Salmonella typhi; assay: Synergistic antibacterial activity against Salmonella typhi assessed as fractional inhibitory concentration index incubated overnight in presence of ciprofloxacin by microdilution checkerboard assay; type: functional, Salmonella enterica subsp. enterica serovar Typhi
[3] = tested on: Salmonella typhi; assay: Antibacterial activity against Salmonella typhi assessed as diameter of zone of inhibition at MIC incubated overnight by disk diffusion method; type: functional, Salmonella enterica subsp. enterica serovar Typhi
[4] = tested on: Escherichia coli; assay: Antibacterial activity against Escherichia coli MTCC 443 assessed as diameter of zone of inhibition at 2 times MIC incubated overnight by disk diffusion method; type: functional
[5] = tested on: Escherichia coli; assay: Antibacterial activity against Escherichia coli MTCC 443 assessed as diameter of zone of inhibition at MIC incubated overnight by disk diffusion method; type: functional
[6] = tested on: Salmonella typhi; assay: Antibacterial activity against Salmonella typhi assessed as diameter of zone of inhibition at 500 ug/ml by agar disk diffusion method; type: functional, Salmonella enterica subsp. enterica serovar Typhi; conditions: Salmonella enterica, read-out: DIZ
[7] = tested on: Escherichia coli; assay: Synergistic antibacterial activity against Escherichia coli MTCC 443 assessed as fractional inhibitory concentration index incubated overnight in presence of ciprofloxacin by microdilution checkerboard assay; type: functional
[8] = tested on: Bacillus subtilis; assay: Synergistic antibacterial activity against Bacillus subtilis MTCC 736 assessed as inhibition of bacterial growth incubated overnight in presence of ciprofloxacin by serial dilution based spectrophotometer; type: functional
[9] = tested on: Enterococcus faecalis; assay: Antibacterial activity against Enterococcus faecalis MTCC 439 assessed as diameter of zone of inhibition at MIC incubated overnight by disk diffusion method; type: functional
[10] = tested on: Pseudomonas aeruginosa; assay: Bactericidal activity against Pseudomonas aeruginosa MTCC 2453 assessed as inhibition of bacterial growth incubated overnight; type: functional
[11] = tested on: Escherichia coli; assay: Antibacterial activity against Escherichia coli MTCC 443 assessed as inhibition of bacterial growth incubated overnight by serial dilution based spectrophotometer; type: functional
[12] = tested on: Bacillus subtilis; assay: Bactericidal activity against Bacillus subtilis MTCC 736 assessed as inhibition of bacterial growth incubated overnight; type: functional
[13] = tested on: Salmonella typhi; assay: Ratio of MBC for antibacterial activity against Salmonella typhi to MIC for bactericidal activity against Salmonella typhi; type: functional, Salmonella enterica subsp. enterica serovar Typhi
[14] = tested on: Pseudomonas aeruginosa; assay: Antibacterial activity against Pseudomonas aeruginosa MTCC 2453 assessed as inhibition of bacterial growth incubated overnight by serial dilution based spectrophotometer; type: functional
[15] = tested on: Staphylococcus aureus; assay: Ratio of MBC for antibacterial activity against Staphylococcus aureus MTCC 902 to MIC for bactericidal activity against Staphylococcus aureus MTCC 902; type: functional
[16] = tested on: Staphylococcus aureus; assay: Antibacterial activity against Staphylococcus aureus MTCC 902 assessed as diameter of zone of inhibition at MIC incubated overnight by disk diffusion method; type: functional
[17] = tested on: Escherichia coli; assay: Antibacterial activity against Escherichia coli MTCC 443 assessed as diameter of zone of inhibition at 0.5 times MIC incubated overnight by disk diffusion method; type: functional
[18] = tested on: Pseudomonas aeruginosa; assay: Synergistic antibacterial activity against Pseudomonas aeruginosa MTCC 2453 assessed as fractional inhibitory concentration index incubated overnight in presence of ciprofloxacin by microdilution checkerboard assay; type: functional
[19] = tested on: Salmonella typhi; assay: Synergistic antibacterial activity against Salmonella typhi assessed as inhibition of bacterial growth incubated overnight in presence of ciprofloxacin by serial dilution based spectrophotometer; type: functional, Salmonella enterica subsp. enterica serovar Typhi; conditions: Salmonella enterica
[20] = tested on: Bacillus subtilis; assay: Antibacterial activity against Bacillus subtilis MTCC 736 assessed as diameter of zone of inhibition at 500 ug/ml by agar disk diffusion method; type: functional; conditions: read-out: DIZ
[21] = tested on: Staphylococcus aureus; assay: Antibacterial activity against Staphylococcus aureus MTCC 902 assessed as inhibition of bacterial growth incubated overnight by serial dilution based spectrophotometer; type: functional
[22] = tested on: Salmonella typhi; assay: Antibacterial activity against Salmonella typhi assessed as inhibition of bacterial growth incubated overnight by serial dilution based spectrophotometer; type: functional, Salmonella enterica subsp. enterica serovar Typhi; conditions: Salmonella enterica
[23] = tested on: Enterococcus faecalis; assay: Antibacterial activity against Enterococcus faecalis MTCC 439 assessed as diameter of zone of inhibition at 2 times MIC incubated overnight by disk diffusion method; type: functional
[24] = tested on: Pseudomonas aeruginosa; assay: Antibacterial activity against Pseudomonas aeruginosa MTCC 2453 assessed as diameter of zone of inhibition at MIC incubated overnight by disk diffusion method; type: functional
[25] = tested on: Escherichia coli; assay: Bacteriostatic activity against Escherichia coli MTCC 443 assessed as reduction in bacterial growth at 2 times MIC measured upto 24 hrs by absorbance based assay; type: functional, organism-based
[26] = tested on: Staphylococcus aureus; assay: Antibacterial activity against Staphylococcus aureus MTCC 902 assessed as diameter of zone of inhibition at 2 times MIC incubated overnight by disk diffusion method; type: functional
[27] = tested on: Enterococcus faecalis; assay: Bactericidal activity against Enterococcus faecalis MTCC 439 assessed as inhibition of bacterial growth incubated overnight; type: functional
[28] = tested on: Bacillus subtilis; assay: Antibacterial activity against Bacillus subtilis MTCC 736 assessed as inhibition of bacterial growth incubated overnight by serial dilution based spectrophotometer; type: functional
[29] = tested on: Bacillus subtilis; assay: Antibacterial activity against Bacillus subtilis MTCC 736 assessed as diameter of zone of inhibition at 2 times MIC incubated overnight by disk diffusion method; type: functional
[30] = tested on: Enterococcus faecalis; assay: Antibacterial activity against Enterococcus faecalis MTCC 439 assessed as diameter of zone of inhibition at 0.5 times MIC incubated overnight by disk diffusion method; type: functional
[31] = tested on: Enterococcus faecalis; assay: Ratio of MBC for antibacterial activity against Enterococcus faecalis MTCC 439 to MIC for bactericidal activity against Enterococcus faecalis MTCC 439; type: functional
[32] = tested on: Pseudomonas aeruginosa; assay: Antibacterial activity against Pseudomonas aeruginosa MTCC 2453 assessed as diameter of zone of inhibition at 500 ug/ml by agar disk diffusion method; type: functional; conditions: read-out: DIZ
[33] = tested on: Salmonella typhi; assay: Antibacterial activity against Salmonella typhi assessed as diameter of zone of inhibition at 2 times MIC incubated overnight by disk diffusion method; type: functional, Salmonella enterica subsp. enterica serovar Typhi
[34] = tested on: Escherichia coli; assay: Synergistic antibacterial activity against Escherichia coli MTCC 443 assessed as inhibition of bacterial growth incubated overnight in presence of ciprofloxacin by serial dilution based spectrophotometer; type: functional
[35] = tested on: Staphylococcus aureus; assay: Antibacterial activity against Staphylococcus aureus MTCC 902 assessed as diameter of zone of inhibition at 500 ug/ml by agar disk diffusion method; type: functional; conditions: read-out: DIZ
[36] = tested on: Bacillus subtilis; assay: Synergistic antibacterial activity against Bacillus subtilis MTCC 736 assessed as fractional inhibitory concentration index incubated overnight in presence of ciprofloxacin by microdilution checkerboard assay; type: functional
[37] = tested on: Pseudomonas aeruginosa; assay: Synergistic antibacterial activity against Pseudomonas aeruginosa MTCC 2453 assessed as inhibition of bacterial growth incubated overnight in presence of ciprofloxacin by serial dilution based spectrophotometer; type: functional
[38] = tested on: Pseudomonas aeruginosa; assay: Antibacterial activity against Pseudomonas aeruginosa MTCC 2453 assessed as diameter of zone of inhibition at 2 times MIC incubated overnight by disk diffusion method; type: functional
[39] = tested on: Escherichia coli; assay: Ratio of MBC for antibacterial activity against Escherichia coli MTCC 443 to MIC for bactericidal activity against Escherichia coli MTCC 443; type: functional
[40] = tested on: Pseudomonas aeruginosa; assay: Ratio of MBC for antibacterial activity against Pseudomonas aeruginosa MTCC 2453 to MIC for bactericidal activity against Pseudomonas aeruginosa MTCC 2453; type: functional
[41] = tested on: Enterococcus faecalis; assay: Antibacterial activity against Enterococcus faecalis MTCC 439 assessed as inhibition of bacterial growth incubated overnight by serial dilution based spectrophotometer; type: functional
[42] = tested on: Staphylococcus aureus; assay: Synergistic antibacterial activity against Staphylococcus aureus MTCC 902 assessed as inhibition of bacterial growth incubated overnight in presence of ciprofloxacin by serial dilution based spectrophotometer; type: functional
[43] = tested on: Staphylococcus aureus; assay: Bacteriostatic activity against Staphylococcus aureus MTCC 902 assessed as reduction in bacterial growth at 2 times MIC measured upto 24 hrs by absorbance based assay; type: functional, organism-based

SMILES: O=[N+]([O-])c1ccccc1/C=N/CCNc1ccnc2cc(Cl)ccc12
- MIC [1]: 2 µg/mL
- fractional inhibitory concentration index (FICI) [2]: 0.077
- diameter of the inhibition zone (DIZ) [3]: 11 mm
- diameter of the inhibition zone (DIZ) [4]: 9 mm
- diameter of the inhibition zone (DIZ) [5]: 7 mm
- zone of inhibition at 500 µg/mL [6]: 12 mm
- fractional inhibitory concentration index (FICI) [7]: 0.124
- MIC [8]: 32 µg/mL
- diameter of the inhibition zone (DIZ) [9]: 10 mm
- MBC [10]: 128 µg/mL (≈ 361 µM)
- MIC [11]: 128 µg/mL (≈ 361 µM)
- MBC [12]: 128 µg/mL (≈ 361 µM)
- Ratio [13]: 1
- MIC [14]: 128 µg/mL (≈ 361 µM)
- Ratio [15]: 1
- diameter of the inhibition zone (DIZ) [16]: 8 mm
- diameter of the inhibition zone (DIZ) [17]: 6 mm
- fractional inhibitory concentration index (FICI) [18]: 1.5
- MIC [19]: 1 µg/mL
- zone of inhibition at 500 µg/mL [20]: 12 mm
- MIC [21]: 256 µg/mL (≈ 722 µM)
- MIC [22]: 64 µg/mL (≈ 180 µM)
- diameter of the inhibition zone (DIZ) [23]: 12 mm
- diameter of the inhibition zone (DIZ) [24]: 8 mm
- Activity [25]: Active
- diameter of the inhibition zone (DIZ) [26]: 9 mm
- MBC [27]: 256 µg/mL (≈ 722 µM)
- MIC [28]: 128 µg/mL (≈ 361 µM)
- diameter of the inhibition zone (DIZ) [29]: 11 mm
- diameter of the inhibition zone (DIZ) [30]: 9 mm
- Ratio [31]: 2
- zone of inhibition at 500 µg/mL [32]: 11 mm
- diameter of the inhibition zone (DIZ) [33]: 8 mm
- MIC [34]: 8 µg/mL
- zone of inhibition at 500 µg/mL [35]: 10 mm
- fractional inhibitory concentration index (FICI) [36]: 0.5
- MIC [37]: 64 µg/mL
- diameter of the inhibition zone (DIZ) [38]: 11 mm
- Ratio [39]: 1
- Ratio [40]: 1
- MIC [41]: 128 µg/mL (≈ 361 µM)
- MIC [42]: 64 µg/mL
- Activity [43]: Active
